From US5459257A, “Sulfated oligoglycoside acylate and antiviral agent containing the same as active ingredient” (priority 1993, dated 1995) come the findings set out here.

The test system of series [1] is MT-4 cells. Kind of series: cytotoxicity in mock-infected MT-4 cells (MTT method). It is filed as cell-based. As for the experimental part:
(§1) A test compound having various concentrations were placed in a 96-well microtiter plate along with HIV-infected MT-4 cells (2.5×10^4 /well, MOI (multiplicity of infection): 0.01) immediately after infection thereof. In order to ascertain the cytotoxicty of the test compound with respect to MT-4 cells, mock-infected (non-infected) cells were cultured in an identical manner along with the test compound of various concentrations. After incubating for 5 days at 37° C. in a CO2 atmosphere, the number of living cells were determined by using MTT method.
Selectivity Index (S.I.) is expressed by the ratio of CC50 to EC50 (CC50 /EC50).

For series [2], the system named is HIV. The series can be described thus: anti-HIV activity, inhibition of HIV-induced cytopathicity in MT-4 cells (MTT method). It is filed as cell-based. The note with it: for EC50: HIV-infected MT-4 cells, MOI 0.01, 5 days, 37° C.; for S.I. (CC50/EC50): MT-4 cells, ratio of CC50 to EC50, 7200 min. As for the experimental part: as §1, with “method. The anti-HIV activity was evaluated with the method written by R. Pauwels, et al. (R. Pauwels, et al., J. Virol Methods, 20, 309 to 321 (1988)).” for “method.”
The anti-HIV activity is shown in terms of EC50 (50% effective concentration) that is the concentration of a compound which inhibits 50% of HIV-induced cytopathicity in MT-4 cells, and the cytotoxity is shown in terms of CC50 (cytotoxic concentration) that is the concentration of a compound which reduces 50% of viability of mock-infected MT-4 cells. Selectivity Index (S.I.) is expressed by the ratio of CC50 to EC50 (CC50 /EC50).

The subject of series [3] is rabbit blood. Kind of series: effects on blood clotting, whole blood clotting time. Conditions: rabbit whole blood, 120 U/ml, positive control.
Description: Sodium heparin (Kodama) used as positive control was diluted with saline at the concentration of 120 U/ml.
Japan White rabbits (supplier: Kitayama Labes), 4 months old, were used for this study.
Cardiopuncture was performed in a rabbit, and at when blood was started to be flowed into the syringe, the timer was made to start. The whole blood collected was carefully flowed into double glass tubes incubated. After putting the samples calmly for 3 minutes, the first tube was tilted gently every 30 seconds and the current of blood was observed. When blood in the first tube was clotted, the same operation was performed in the second tube. When the blood was clotted in the second tube, the timer was stopped, and this end point was recorded as whole blood clotting time.
Where [4] appears, read: mock-infected MT-4 cells, 5 days, 37° C.
The mark [5] stands for this setting: mock-infected MT-4 cells, 5 days, 37° C., 7200 min.

Regarding “Sulfated 4-n-octylphenyl O-benzoyl-β-D-laminaripentaoside [Compound 8]”, in series [1] (setting [4]), the CC50 was 556 µg/mL. In series [2], the EC50 came out at 6.8 µg/mL and the “S.I. (CC50/EC50)” value is reported as 82.

Substance “Sulfated dl-α-tocopheryl O-n-dodecanoyl-β-D-laminaripentaoside [Compound 37]” yielded a half-maximal cytotoxic concentration (CC50) in series [1] (setting [5]) of 77.4 µg/mL. Further, in series [2], the EC50 was 25.1 µg/mL and the “S.I. (CC50/EC50)” value came to 3.

For the substance “Sulfated dl-α-tocopheryl O-n-dodecanoyl-β-D-laminaripentaoside [Compound 38]”, the CC50 in series [1] (setting [5]) was 81.1 µg/mL. In series [2], the EC50 stood at 18.7 µg/mL and the “S.I. (CC50/EC50)” value amounted to 4.

Turning to “Sulfated dl-α-tocopheryl O-n-octanoyl-β-D-laminaripentaoside [Compound 33]”, the CC50 in series [1] (setting [5]) came out at 639 µg/mL. Further, in series [2], the concentration for a half-maximal effect (EC50) was found to be 0.64 µg/mL and the “S.I. (CC50/EC50)” value is 998.

“Sulfated dl-α-tocopheryl O-2,4-difluorobenzoyl-β-D-galactosyl-(1→4)-β-D-galactosyl-(1→4)-β-D-glucoside [Compound 43]” showed a CC50 in series [1] (setting [4]) of 644 µg/mL. In series [2], the EC50 was 3.3 µg/mL and the “S.I. (CC50/EC50)” value came to 195.

As for “Sulfated n-dodecyl O-4-fluorobenzoyl-β-D-laminaripentaoside [Compound 5]”, the CC50 in series [1] (setting [5]) was determined as 986 µg/mL. For the same substance, in series [2], the EC50 is 1.3 µg/mL and the “S.I. (CC50/EC50)” value amounted to 758.

As to Heparin [reference compound], the clotting time in series [3] is given as over 60 min.

As to “Sulfated n-dodecyl O-benzoyl-β-D-laminaripentaoside [Compound 2]”, in series [1] (setting [5]), the CC50 is listed as > 1,000 μg/ml. In series [2], the 50% effective concentration (EC50) turned out to be 0.4 µg/mL and the “S.I. (CC50/EC50)” value is > 2,500.

Take “Sulfated dl-α-tocopheryl O-benzoyl-β-D-laminaripentaoside [Compound 46]”: the CC50 in series [1] (setting [5]) turned out to be 160 µg/mL. In series [2], the EC50 stood at 3.9 µg/mL and the “S.I. (CC50/EC50)” value was 41.

“Sulfated 4-t-octylphenyl O-benzoyl-β-D-galactosyl-(1→4)-β-D-galactosyl-(1→4)-β-D-glucoside [Compound 17]” returned a CC50 in series [1] (setting [4]) of 484 µg/mL. In series [2], the concentration for a half-maximal effect (EC50) came to 76.3 µg/mL and the “S.I. (CC50/EC50)” value was 6.

In turn, “Sulfated dl-α-tocopheryl O-n-butyryl-β-D-galactosyl-(1→4)-β-D-galactosyl-(1→4)-β-D-glucoside [Compound 42]” came in with a 50% cytotoxic concentration (CC50) in series [1] (setting [4]) of 627 µg/mL. Besides, in series [2], the EC50 came out at 3.6 µg/mL and the “S.I. (CC50/EC50)” value came to 174.

Turning to “Sulfated n-dodecyl O-4-fluorobenzoyl-β-D-laminaripentaoside [Compound 4]”, the CC50 in series [1] (setting [5]) turned out to be 866 µg/mL. In series [2], the EC50 is 1.7 µg/mL and the “S.I. (CC50/EC50)” value was determined as 509.

In the case of “Sulfated dl-α-tocopheryl O-n-docosanoyl-β-D-laminaripentaoside [Compound 40]”, the 50% cytotoxic concentration (CC50) in series [1] (setting [4]) is 546 µg/mL. In series [2], the concentration for a half-maximal effect (EC50) came out at 20.6 µg/mL and the “S.I. (CC50/EC50)” value was determined as 27.

In the case of “Sulfated 4-n-octyloxyphenyl O-benzoyl-β-D-laminaripentaoside [Compound 11]”, in series [1] (setting [4]), the 50% cytotoxic concentration (CC50) stood at 557 µg/mL. In series [2], the EC50 amounted to 4.7 µg/mL and the “S.I. (CC50/EC50)” value was 119.

In series [1] (setting [5]), “Sulfated dl-α-tocopheryl O-n-octanoyl-β-D-laminaripentaoside [Compound 34]” showed a cytotoxic concentration (CC50) of 472 µg/mL. In addition, in series [2], the half-maximal effective concentration (EC50) was 16.0 µg/mL and the “S.I. (CC50/EC50)” value is on record as 30.

In turn, “Sulfated 4-n-octylphenyl O-4-fluorobenzoyl-β-D-laminaripentaoside [Compound 9]” displayed a CC50 in series [1] (setting [4]) of 496 µg/mL. Also, in series [2], the EC50 amounted to 14.1 µg/mL and the “S.I. (CC50/EC50)” value turned out to be 35.

In the case of “Sulfated dl-α-tocopheryl O-benzoyl-β-D-laminaripentaoside [Compound 45]”, in series [1] (setting [5]), the CC50 amounted to 642 µg/mL. In series [2], the EC50 came to 1.8 µg/mL and the “S.I. (CC50/EC50)” value is on record as 357.

The substance “Sulfated dl-α-tocopheryl O-n-butyryl-β-D-laminaripentaoside [Compound 31]” registered a CC50 in series [1] (setting [5]) of 214 µg/mL. In addition, in series [2], the EC50 was 1.1 µg/mL and the “S.I. (CC50/EC50)” value worked out at 195.

Take “Sulfated 4-n-octyloxyphenyl O-octanoyl-β-D-laminaripentaoside [Compound 26]”: the cytotoxic concentration (CC50) in series [1] (setting [4]) is > 1,000 μg/ml. For the same substance, in series [2], the EC50 worked out at 1.7 µg/mL and the “S.I. (CC50/EC50)” value is over 588.

For “Sulfated dl-α-tocopheryl O-n-dodecanoyl-β-D-laminaripentaoside [Compound 39]”, the CC50 in series [1] (setting [5]) was 586 µg/mL. For the same substance, in series [2], the EC50 came out at 15.3 µg/mL and the “S.I. (CC50/EC50)” value is 38.

“Sulfated dl-α-tocopheryl O-n-butyryl-β-D-laminaripentaoside [Compound 30]” had a CC50 in series [1] (setting [4]) of 663 µg/mL. In series [2], the EC50 turned out to be 0.59 µg/mL and the “S.I. (CC50/EC50)” value is reported as 1,124.

In the case of “Sulfated 4-t-octylphenyl O-benzoyl-β-D-laminaripentaoside [Compound 14]”, the CC50 in series [1] (setting [4]) is 557 µg/mL. Further, in series [2], the EC50 was found to be 16.4 µg/mL and the “S.I. (CC50/EC50)” value is on record as 119.

The substance “Sulfated dl-α-tocopheryl O-n-butyryl-β-D-laminaripentaoside [Compound 32]” had a half-maximal cytotoxic concentration (CC50) in series [1] (setting [5]) of 115 µg/mL. For the same substance, in series [2], the concentration for a half-maximal effect (EC50) worked out at 6.4 µg/mL and the “S.I. (CC50/EC50)” value turned out to be 18.

Regarding “Sulfated 4-t-octylphenyl O-n-octanoyl-β-D-laminaripentaoside [Compound 27]”, the cytotoxic concentration (CC50) in series [1] (human, mt-4 cells, 120 h) is listed as > 1,000 μg/ml. Further, in series [2], the concentration for a half-maximal effect (EC50) is 0.63 µg/mL and the “S.I. (CC50/EC50)” value was > 1,587.

“Sulfated dl-α-tocopheryl O-n-butyryl-β-D-galactosyl-(1→4)-β-D-galactosyl-(1→4)-β-D-glucoside [Compound 41]” returned a half-maximal cytotoxic concentration (CC50) in series [1] (setting [5]) of 586 µg/mL. Further, in series [2], the EC50 was 5.4 µg/mL and the “S.I. (CC50/EC50)” value amounted to 109.

In series [1] (setting [4]), “Sulfated 4-n-heptylphenyl O-benzoyl-β-D-galactosyl-(1→4)-β-D-galactosyl-(1→4)-β-D-glucoside [Compound 18]” registered a half-maximal cytotoxic concentration (CC50) of 634 µg/mL. Also, in series [2], the EC50 was 14.5 µg/mL and the “S.I. (CC50/EC50)” value is reported as 47.

Substance “Sulfated dl-α-tocopheryl O-n-dodecanoyl-β-D-laminaripentaoside [Compound 36]” gave a 50% cytotoxic concentration (CC50) in series [1] (setting [5]) of 323 µg/mL. In addition, in series [2], the EC50 is 3.9 µg/mL and the “S.I. (CC50/EC50)” value was 83.

With “Sulfated dl-α-tocopheryl O-n-octanoyl-β-D-laminaripentaoside [Compound 35]”, in series [1] (setting [5]), the CC50 is 519 µg/mL. In series [2], the EC50 came out at 20.2 µg/mL and the “S.I. (CC50/EC50)” value came out at 26.

In turn, “Sulfated n-dodecyl O-4-fluorobenzoyl-β-D-laminaripentaoside [Compound 3]” displayed a CC50 in series [1] (human, mt-4 cells, 120 h) of 964 µg/mL. In addition, in series [2], the half-maximal effective concentration (EC50) stood at 2.0 µg/mL and the “S.I. (CC50/EC50)” value is listed as 482.

On to “Sulfated n-dodecyl O-2,4-difluorobenzoyl-β-D-laminaripentaoside [Compound 7]”, for which, in series [1] (setting [4]), the CC50 is reported as > 1,000 μg/ml. Besides, in series [2], the EC50 turned out to be 2.1 µg/mL and the “S.I. (CC50/EC50)” value is listed as over 476.

Regarding “Sulfated 4-n-octyloxyphenyl O-4-fluorobenzoyl-β-D-laminaripentaoside [Compound 12]”, the CC50 in series [1] (setting [4]) is 530 µg/mL. Also, in series [2], the EC50 is 16.1 µg/mL and the “S.I. (CC50/EC50)” value was found to be 33.

In series [1] (setting [5]), “Sulfated dl-α-tocopheryl O-benzoyl-β-D-laminaripentaoside [Compound 44]” yielded a CC50 of 685 µg/mL. Besides, in series [2], the EC50 came to 0.52 µg/mL and the “S.I. (CC50/EC50)” value was 1,317.
